Measured values reported in patent US20210300932A1, “CYCLIC PEPTIDES TARGETING ALPHA-4-BETA-7 INTEGRIN” (Zealand Pharma A/S, priority 2015, published 2021).

Experiments:
[1] = system: DSS experimental model of ulcerative colitis; experiment: 8-Day efficacy study in DSS model (therapeutic); format: in vivo, C57BI/6 mice; settings: 40 mg/kg p.o.
Source text: The STDs in ascending order bracketing the study samples and dosing solutions • 1. The study samples • 2.
Description of Tested Compounds
Animals. Female C57BI/6 mice (Charles River, St-Constant, Qc), weighting 16-19 g at delivery were used for this study. Following arrival in the animal facility, all animals were subjected to a general health evaluation. An acclimation period of 7-14 days was allowed before the beginning of the study.
Oral dosing of the test article and the vehicle. From Day 5 to Day 8, nacellins and the vehicle were administered as a single slow bolus (over approximately 5 seconds) via oral route (p.o.), according to the procedure of administration of solution by gavage: the animal was firmly restrained. A bulb-tipped gastric gavage needle of 22G was passed through the side of the mouth and was advanced towards the oesophagus. The test articles and the vehicle were dosed orally at 5 mL/kg.
Intraperitoneal dosing of the test articles and the vehicle. On day 5, DATK32 antibody was administered in only on Day 5, as a single slow bolus (over approximately 5 seconds) via the i.p. route. […] Intraperitoneal administration was performed accordingly to the following procedure: the mouse was restrained manually and held with the head and body tilted downward. The tip of the needle (27 G) was inserted through the skin and just past the abdominal wall. A short pull back of the plunger of the syringe was done prior to administration of the solution to make sure that the syringe was not inserted in any abdominal organ (fluid would be pulled back into the syringe in this case).
Inflammation Score. Once the mouse was euthanized, the colon was collected and its length was measured. Lesion length was also measured. Colon inflammation was scored based on severity of oedema and ulceration.
Disease Activity Index (DAI) assessment. Body weight and DAI were measured on Day 5 in order to distribute DSS-treated animals in two uniform groups prior dosing. Specific symptoms associated to UC were scored based on the severity of each particular symptoms: 1—blood in stool (negative hemoccult, positive hemoccult, blood traces in stool visible, rectal bleeding); 2—stool consistency (normal, soft but still formed, very soft, diarrhea); 3—posture and fur (normal; ruffled fur; ruffled fur combined to slight hunched posture and slight dehydration; ruffled fur combined to hunched posture, dehydration and altered walking; moribund (euthanasia is mandatory before the animal reach this point). The overall DAI score was the sum of the three parameters (maximum score 9). Body weight measurement and DAI assessment were performed also on Day 8 to evaluate the effect of the treatments.
Collection of samples. On Day 8, five hours after ET02451-01, ET02452-01 and vehicle dosing, the animals were euthanized by cardiac puncture under general anesthesia, according to the “Guide to the Care and Use of Experimental Animals” published by the CCAC. Blood was transferred in a Sarstedt tube containing EDTA. Mesenteric and peripheral (inguinal, auxiliary and brachial) lymph nodes were collected and transferred on ice in corresponding tubes containing cold PBS. Nodes were kept on ice until tissue preparation.
Cell population labeling. Blood was withdrawn by cardiac puncture and collected on EDTA-coated tubes. Mensenteric lymph nodes (MLN) and peripheral lymph nodes (PLN) were also collected. Mononuclear cells from the tissues will be isolated using density gradient (Lympholyte) and they were stained with fluorescent antibodies. […] After washes, cells were fixed using BD Fix Solution. Percentage of different subpopulations of T lymphocytes were then analysed using FACSCalibur cytometer. Antibodies employed were the same as listed for the single-dose PD studies above.

[2] = mouse, in vivo
Protocol: (§3) In Vivo Pharmacokinetic Assessments in Rodents
(§4) Oral bioavailability of test compounds was conducted by assessing plasma exposure of following one or two oral doses in mice and, in some cases, comparing said plasma exposure with that following a single intravenous dose of the same compound.
(§5) Body weights were recorded on the day of dosing.
(§6) Food restriction: Animals dosed p.o. were deprived of food overnight and fed ˜2 h following dosing.
(§7) Dosing: The formulation containing the test compound were administered p.o. by gavage with disposable feeding needles.
(§8) Sample collection: Terminal blood and tissue samples were collected under O2/CO2 anesthesia by cardiac puncture.
(§9) Sample processing/storage: All blood samples were transferred into K2EDTA tubes on wet ice and centrifuged within 5 min (3200×g for 5 min at 4° C.) to obtain plasma. Samples were stored frozen at −80° C. until bioanalysis.
(§10) Bioanalytical Method Qualification and Sample Analysis:
(§11) Instrumentation: AB Sciex API 4000 Q-TRAP MS/MS system equipped with an Agilent LC system with a binary pump, a solvent degasser, a thermostatted column compartment, a CTC autosampler and a divert valve installed between the column and mass spectrometer inlet.

[3] = in vivo; settings: male, CD-1, mouse
Protocol: as §3, §4, §5, §6, §7, §8, §9, §10, §11

[4] = In vivo pharmacokinetic assessments in rodents; settings: for F: plasma
Protocol: as §3, §4, §5, §6, §7, §8, §9, §10, §11

[5] = target: T1, Recombinant human integrin α4β7 (Homo sapiens, UniProt P13612+P26010, DEL724-798); experiment: Integrin α4β7—MAdCAM-1 ELISA competition assay; format: binding; settings: ratio a4b1 ELISA IC50 / a4b7 ELISA IC50
T1 construct: purchased R&D Systems 5397-A3-050
T1 sequence (P13612 34-977 limits assumed): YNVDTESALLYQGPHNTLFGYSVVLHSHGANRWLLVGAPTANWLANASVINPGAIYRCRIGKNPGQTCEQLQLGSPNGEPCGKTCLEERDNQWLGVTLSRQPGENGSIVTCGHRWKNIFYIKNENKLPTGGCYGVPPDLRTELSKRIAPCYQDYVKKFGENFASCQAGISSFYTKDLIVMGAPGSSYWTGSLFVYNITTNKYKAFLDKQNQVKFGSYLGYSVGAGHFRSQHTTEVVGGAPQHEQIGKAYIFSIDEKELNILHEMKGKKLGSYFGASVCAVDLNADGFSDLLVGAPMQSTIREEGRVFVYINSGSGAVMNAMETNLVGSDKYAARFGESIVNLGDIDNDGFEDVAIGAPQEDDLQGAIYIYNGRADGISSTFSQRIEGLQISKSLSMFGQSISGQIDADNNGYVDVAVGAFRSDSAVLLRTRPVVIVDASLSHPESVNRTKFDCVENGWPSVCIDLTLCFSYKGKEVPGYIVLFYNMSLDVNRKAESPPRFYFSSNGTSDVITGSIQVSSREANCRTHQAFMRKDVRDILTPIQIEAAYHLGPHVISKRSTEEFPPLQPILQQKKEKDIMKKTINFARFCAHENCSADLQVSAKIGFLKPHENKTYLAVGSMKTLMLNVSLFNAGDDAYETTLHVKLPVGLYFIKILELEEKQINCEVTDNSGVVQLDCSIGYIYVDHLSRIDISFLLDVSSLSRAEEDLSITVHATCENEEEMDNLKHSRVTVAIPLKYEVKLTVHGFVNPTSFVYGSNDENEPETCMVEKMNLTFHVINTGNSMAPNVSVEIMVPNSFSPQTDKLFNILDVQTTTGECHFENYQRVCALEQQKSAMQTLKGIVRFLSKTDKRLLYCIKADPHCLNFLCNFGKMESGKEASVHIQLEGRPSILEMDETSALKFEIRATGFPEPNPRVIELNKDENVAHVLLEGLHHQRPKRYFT
T1 sequence (P26010 20-723 limits assumed): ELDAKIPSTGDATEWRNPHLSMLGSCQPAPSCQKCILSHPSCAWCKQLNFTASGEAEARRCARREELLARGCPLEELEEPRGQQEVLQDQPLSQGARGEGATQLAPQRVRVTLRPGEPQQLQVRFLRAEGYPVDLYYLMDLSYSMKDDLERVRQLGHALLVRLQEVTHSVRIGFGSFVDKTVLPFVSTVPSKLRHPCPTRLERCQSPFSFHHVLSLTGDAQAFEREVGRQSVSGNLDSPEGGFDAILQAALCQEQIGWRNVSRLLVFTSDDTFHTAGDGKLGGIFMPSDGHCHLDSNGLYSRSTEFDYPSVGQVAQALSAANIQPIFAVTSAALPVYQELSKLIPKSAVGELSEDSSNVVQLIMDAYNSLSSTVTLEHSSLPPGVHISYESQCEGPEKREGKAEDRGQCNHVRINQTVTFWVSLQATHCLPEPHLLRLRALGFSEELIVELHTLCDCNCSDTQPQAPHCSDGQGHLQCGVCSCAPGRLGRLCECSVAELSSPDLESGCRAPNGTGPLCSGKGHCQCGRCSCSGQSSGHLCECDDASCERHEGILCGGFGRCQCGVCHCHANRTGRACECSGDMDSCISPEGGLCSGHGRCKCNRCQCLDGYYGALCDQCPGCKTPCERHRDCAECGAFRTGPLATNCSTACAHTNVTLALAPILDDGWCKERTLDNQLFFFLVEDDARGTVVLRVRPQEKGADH
Protocol: Integrin α4β7—MAdCAM-1 ELISA Competition Assay
Protocol • 1.1 Preparation of α4β7. • 1.1.1 Add 500 μL of PBS to the vial. […] Mix by inversion before use. Keep at 4° C. for up to 1 month. • Final concentration is 100 pg/mL • 1.1 Preparation of MadCam-Fc. • 1.1.1 Add 500 μL of Assay buffer to the vial. […] Mix by inversion before use.

[6] = target: T2, CYP1A2 (Homo sapiens, UniProt P05177); experiment: in vitro
T2 sequence (P05177 1-516): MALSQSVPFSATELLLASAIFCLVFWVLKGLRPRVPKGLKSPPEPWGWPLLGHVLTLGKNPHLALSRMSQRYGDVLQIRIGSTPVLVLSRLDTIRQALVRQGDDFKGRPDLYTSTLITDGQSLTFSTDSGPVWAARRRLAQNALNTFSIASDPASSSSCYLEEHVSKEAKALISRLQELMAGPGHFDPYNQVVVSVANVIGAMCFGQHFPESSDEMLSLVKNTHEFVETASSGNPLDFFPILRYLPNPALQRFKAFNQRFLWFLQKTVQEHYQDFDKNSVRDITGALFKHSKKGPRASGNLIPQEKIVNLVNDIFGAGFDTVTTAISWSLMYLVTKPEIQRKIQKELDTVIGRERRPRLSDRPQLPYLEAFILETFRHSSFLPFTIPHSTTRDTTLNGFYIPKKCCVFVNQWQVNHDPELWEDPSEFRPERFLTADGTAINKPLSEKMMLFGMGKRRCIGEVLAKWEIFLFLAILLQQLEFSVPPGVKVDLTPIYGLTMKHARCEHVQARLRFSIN
Protocol: (§1) Cytochrome P450 Inhibition Assay
(§2) Analyses were performed using standard LC/MS/MS protocols.

[7] = target: CYP2C9 (Homo sapiens, UniProt P11712); experiment: in vitro
Sequence of CYP2C9 (P11712 whole entry): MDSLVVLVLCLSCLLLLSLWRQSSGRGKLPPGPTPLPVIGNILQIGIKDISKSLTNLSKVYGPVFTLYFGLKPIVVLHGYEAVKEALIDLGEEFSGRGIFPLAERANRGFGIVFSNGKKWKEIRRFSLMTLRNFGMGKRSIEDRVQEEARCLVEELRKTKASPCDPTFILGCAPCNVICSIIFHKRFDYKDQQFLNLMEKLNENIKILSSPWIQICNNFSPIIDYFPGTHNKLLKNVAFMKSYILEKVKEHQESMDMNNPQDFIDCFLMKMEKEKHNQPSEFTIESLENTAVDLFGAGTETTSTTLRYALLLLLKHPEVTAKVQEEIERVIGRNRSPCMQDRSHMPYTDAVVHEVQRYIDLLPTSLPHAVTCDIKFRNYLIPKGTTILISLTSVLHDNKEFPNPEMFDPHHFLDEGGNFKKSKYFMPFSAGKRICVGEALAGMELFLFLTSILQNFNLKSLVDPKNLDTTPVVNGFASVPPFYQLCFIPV
Protocol: as §1, §2

[8] = target: CYP3A4 (Homo sapiens, UniProt P08684); experiment: in vitro
Sequence of CYP3A4 (P08684 whole entry): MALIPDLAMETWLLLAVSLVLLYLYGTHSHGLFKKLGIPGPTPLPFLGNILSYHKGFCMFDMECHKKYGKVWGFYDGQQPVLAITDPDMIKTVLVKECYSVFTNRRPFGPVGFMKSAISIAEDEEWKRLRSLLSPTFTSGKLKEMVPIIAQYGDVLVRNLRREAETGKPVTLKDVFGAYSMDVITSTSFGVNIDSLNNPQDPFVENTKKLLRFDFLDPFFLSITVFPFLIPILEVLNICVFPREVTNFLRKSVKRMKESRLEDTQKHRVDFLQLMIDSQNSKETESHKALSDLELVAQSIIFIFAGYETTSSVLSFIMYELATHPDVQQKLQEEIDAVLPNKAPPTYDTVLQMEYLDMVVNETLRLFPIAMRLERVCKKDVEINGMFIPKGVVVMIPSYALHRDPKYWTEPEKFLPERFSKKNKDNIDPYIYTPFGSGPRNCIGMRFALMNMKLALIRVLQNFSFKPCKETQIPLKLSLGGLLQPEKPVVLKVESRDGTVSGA
Protocol: as §1, §2

[9] = in vitro; settings: Control buffer/Buffer at 0.1 uM % Recovery
Protocol: (§12) An equilibrium dialysis (HTDialysis) method was used employing 50% plasma collected from CD-1 mice or Sprague-Dawley rats and incubated with K2EDTA. Test articles were assessed at 1 microM concentration in three replicates. Incubation time as 5 hours and plasma and buffer standards were assessed using LC/MS/MS. Percentage recovery was calculated as (Cbuffer+Cplasma)/[average]Cinitial, [average]Cinitial being measured in triplicate from the test samples prior to dialysis. Percentage of compound unbound was calculated as Cbuffer/Cplasma.

[10] = system: plasma proteins; experiment: in vitro; settings: CD-1, mouse
Protocol: as §12

[11] = target: CYP2D6 (Homo sapiens, UniProt P10635); experiment: in vitro
Sequence of CYP2D6 (P10635 whole entry): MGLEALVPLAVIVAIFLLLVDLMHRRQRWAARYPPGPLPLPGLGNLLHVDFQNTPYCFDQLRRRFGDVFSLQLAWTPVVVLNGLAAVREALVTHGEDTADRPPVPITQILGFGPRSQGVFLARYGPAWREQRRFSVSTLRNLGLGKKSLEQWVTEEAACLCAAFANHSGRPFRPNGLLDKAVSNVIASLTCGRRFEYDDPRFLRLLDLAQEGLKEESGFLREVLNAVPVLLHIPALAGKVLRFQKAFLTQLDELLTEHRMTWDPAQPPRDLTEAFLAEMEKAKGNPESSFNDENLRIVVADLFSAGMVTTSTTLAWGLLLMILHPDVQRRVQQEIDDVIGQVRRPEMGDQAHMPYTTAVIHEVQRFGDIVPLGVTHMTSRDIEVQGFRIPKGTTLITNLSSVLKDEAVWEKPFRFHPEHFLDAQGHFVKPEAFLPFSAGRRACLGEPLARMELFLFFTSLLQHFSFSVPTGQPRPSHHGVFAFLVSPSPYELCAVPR

[12] = Plasma protein binding determination, equilibrium dialysis, mouse plasma; settings: first table; buffer/buffer control
Protocol: as §12

[13] = system: plasma proteins; experiment: as above; settings: CD-1, mouse, % recovery, Mouse plasma, equilibrium dialysis
Protocol: as §12

CC(C)C[C@@H]1NC(=O)c2ccc(-c3ccc(N4CCNCC4)cc3)c(c2)CNC(=O)[C@@H]2CCCN2[C@H](C(=O)NC(C)(C)C)[C@H](C)NC(=O)[C@H]([C@@H](C)O)NC(=O)[C@H](CC(=O)O)NC1=O [Compound No. 340]
CD3+CD4+α4β7+ cell population in mesenteric lymph nodes [1]: significant decrease | reduction of lesion length vs vehicle group ([1]; Day 5 to Day 8): significantly reduced the lesion length | reduction of DAI score on Day 8 vs DSS+vehicle ([1]; b.i.d., Day 5 to Day 8): 15% | lesion/colon length ([1]; vehicle group 40%): 12% | oral bioavailability (in words) [2]: significant absorption from the gut and systemic exposure | bioavailability [3]: ~11% | AUC(0-inf) ([3]; iv, 5 mg/kg): 778 ng·h/mL | C0 ([3]; iv, 5 mg/kg): 1410 ng/mL | Cmax ([3]; iv, 5 mg/kg): 1330 ng/mL | MRT inf ([3]; iv, 5 mg/kg): 41.9 min | Vd ([3]; iv, 5 mg/kg): 4.49 L/kg | clearance ([3]; iv, 5 mg/kg): 107 mL/min/kg | half-life ([3]; iv, 5 mg/kg): 120 min | AUC(0-inf) ([3]; po, 40 mg/kg): 690 ng·h/mL | AUC(0-t) ([3]; po, 40 mg/kg): 686 ng·h/mL | MRT inf ([3]; po, 40 mg/kg): 41.3 min | half-life ([3]; po, 40 mg/kg): 32.2 min | half-life in the liver ([4]; following oral dosing 40 mg/kg): ~480 min | AUC(0-t) ([4]; male, CD-1, mouse, in vivo, iv, 5 mg/kg): 778 ng·h/mL | Tmax ([4]; male, CD-1, mouse, in vivo, po, 40 mg/kg): 5 min | half-life ([4]; male, CD-1, mouse, in vivo, po, 40 mg/kg, elimination half-life in plasma, following oral dosing 40 mg/kg): ~30 min | half-life ([4]; male, CD-1, mouse, in vivo, po, 40 mg/kg, half-life in colon, following oral dosing 40 mg/kg): > 1260 min | F ([4]; i.v. 5 mg/kg): 100% | F ([4]; p.o. 40 mg/kg): 11.0%

CC(C)C[C@@H]1NC(=O)[C@H]2CCCCN2C(=O)[C@H](Cc2ccc(O)cc2)N(C)C(=O)[C@@H]2CCCN2[C@H](C(=O)NC(C)(C)C)[C@H](C)NC(=O)[C@H]([C@@H](C)O)NC(=O)[C@H](CC(=O)O)NC1=O [Compound 148]
Selectivity ELISA [5]: 1.2

COc1ccccc1-c1ccccc1C[C@@H]1NC(=O)[C@@H]2CCCN2[C@H](C(=O)NC(C)(C)C)[C@H](C)NC(=O)[C@H]([C@@H](C)O)NC(=O)[C@H](CC(=O)O)NC(=O)[C@H](CC(C)C)NC(=O)[C@H]2CCCCN2C1=O [Compound 135]
Selectivity ELISA [5]: 4.9

CC[C@H](C)[C@@H]1NC(=O)[C@H](CC(=O)O)NC(=O)[C@H](CC(C)C)NC(=O)[C@H](Cc2ccc3ccccc3c2)NC(=O)[C@@H]2CCCN2[C@H](C(=O)NC(C)(C)C)[C@H](C)NC1=O [Compound No. 15]
IC50 [6]: > 15 µM | IC50 [7]: > 15 µM | IC50 [8]: > 15 µM | recovery at 5 hours, 0.1 uM [9]: 70% | fraction unbound at 5 hours, 1 microM ([10]; % unbound (Cbuffer/Cplasma) 1): 0.1 | fraction unbound at 5 hours, 1 microM ([10]; % unbound (Cbuffer/Cplasma) 2): 0.093 | fraction unbound at 5 hours, 1 microM ([10]; % unbound (Cbuffer/Cplasma) 3): 0.136 | IC50 [11]: > 15 µM | Control buffer/Buffer at 0.1 uM Cdonor/Creciever [12]: 86% | recovery at 5 hours, 1 microM ([13]; first table): 103% | recovery at 5 hours, 1 microM ([13]; second table): 143%
